In patent US9034866B2 (Genentech, Inc., priority 2012, dated 2015):
Like-named read-outs stand apart in the source and are kept apart here.

Legend:
[1] = target: nuclear factor-kappa B (NF-kB)-inducing kinase (NIK) (Homo sapiens (Human), UniProt Q99558); test: NIK Enzyme Inhibition Assay (Transcreener ADP fluorescence polarization); format: biochemical; details: read-out: NIK ADP-FP (Ki uM)
Summary of the method: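 Fluorescence-polarization ADP detection (tracer displacement, 633 nm excitation) read after EDTA/Brij quench. Reaction: 0.2-1 nM insect-cell-derived NIK, 10 uM ATP, HEPES pH 7.2 with MgCl2 and DTT, 1% DMSO, 1-3.5 h with compounds.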

[2] = system: REL-A (p65) nuclear translocation in HeLa cells; test: REL-A nuclear translocation assay (classical NF-kB signaling), high content imaging; format: cell-based; details: compounds 4.5 hours, then 10 ng/mL TNF-α for 30 minutes, read-out: REL-A HeLa Transloc Assay (IC50)
Summary of the method: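 HeLa cells in 10% FBS medium preincubated with compounds (0.2% DMSO final) for 4.5 hours, then stimulated with 10 ng/mL TNF-α for 30 minutes. Fixed cells stained with 400 ng/mL anti-REL-A antibody, Alexa488 secondary and DRAQ5; translocation quantified by imaging as nuclear to cytoplasmic signal ratio.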

[3] = system: p52 (NF-kB2) nuclear translocation in HeLa cells; test: p52 nuclear translocation assay (non-classical NF-kB signaling), high content imaging; format: cell-based; details: 100 ng/mL anti-lymphotoxin beta receptor antibody for 5 hours, read-out: p52 HeLa Transloc Assay (IC50)
Summary of the method: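 HeLa cells in 10% FBS medium were treated with compound (0.2% DMSO final), then stimulated 5 h with 100 ng/mL anti-lymphotoxin beta receptor antibody. After fixation, cells were immunostained for p52 (2 ug/mL antibody) with DRAQ5 nuclear stain and imaged by high-content imaging. IC50 in µM was derived from the nuclear/cytoplasmic signal ratio.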

[4] = purified NIK 0.2-1 nM, 10 uM ATP, Morrison's quadratic equation

Chain of nuclear factor-kappa B (NF-kB)-inducing kinase (NIK) (Q99558 whole entry): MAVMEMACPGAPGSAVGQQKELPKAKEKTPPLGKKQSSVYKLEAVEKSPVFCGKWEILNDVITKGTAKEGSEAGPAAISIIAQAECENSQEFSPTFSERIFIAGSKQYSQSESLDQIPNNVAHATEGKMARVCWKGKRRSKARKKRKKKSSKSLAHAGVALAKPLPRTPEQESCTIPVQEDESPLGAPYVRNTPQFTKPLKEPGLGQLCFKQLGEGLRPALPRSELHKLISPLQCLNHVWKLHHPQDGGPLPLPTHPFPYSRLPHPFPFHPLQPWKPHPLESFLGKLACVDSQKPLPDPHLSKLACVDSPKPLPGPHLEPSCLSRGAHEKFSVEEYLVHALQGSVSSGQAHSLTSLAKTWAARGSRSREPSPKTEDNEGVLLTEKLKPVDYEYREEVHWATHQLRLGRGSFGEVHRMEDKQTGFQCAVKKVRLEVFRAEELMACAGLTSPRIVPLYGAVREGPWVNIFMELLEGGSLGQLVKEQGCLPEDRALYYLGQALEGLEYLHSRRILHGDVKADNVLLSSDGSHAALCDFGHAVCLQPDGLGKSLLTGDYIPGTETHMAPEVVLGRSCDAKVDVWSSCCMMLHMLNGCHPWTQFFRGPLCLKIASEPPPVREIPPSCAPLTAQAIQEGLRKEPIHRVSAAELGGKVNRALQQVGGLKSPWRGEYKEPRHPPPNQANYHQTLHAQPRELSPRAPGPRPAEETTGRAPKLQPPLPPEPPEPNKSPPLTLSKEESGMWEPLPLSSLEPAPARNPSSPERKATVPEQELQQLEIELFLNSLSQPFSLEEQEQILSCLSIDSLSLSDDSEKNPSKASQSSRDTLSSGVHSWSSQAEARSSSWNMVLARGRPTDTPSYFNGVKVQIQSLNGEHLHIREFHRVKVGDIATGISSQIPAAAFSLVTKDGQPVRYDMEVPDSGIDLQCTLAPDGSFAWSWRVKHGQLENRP

Structure (SMILES)	Ki [1, 4] [µM]	IC50 ([2]; Homo sapiens, HeLa) [nM]	IC50 ([3]; Homo sapiens, HeLa, 5 h) [nM]	Ki [1] [µM]	IC50 [2] [nM]	IC50 [3] [nM]	IC50 ([2]; Homo sapiens) [nM]	IC50 ([3]; Homo sapiens) [nM]
Cc1cc([C@](C)(O)C#Cc2ccc3c(c2)-c2nc(C(N)=O)sc2CCO3)no1 [Example 7, 9-[(R)-3-hydroxy-3-(5-methyl-isoxazol-3-yl)-but-1-ynyl]-4,5-dihydro-6-oxa-3-thia-1-aza-benzo[e]azulene-2-carboxylic acid amide]	0.0002	20000	39.5					
Cc1cc([C@](C)(O)C#Cc2ccc3c(c2)-c2nc(C(N)=O)cn2CCO3)no1 [Example 8, 9-[(R)-3-Hydroxy-3-(5-methyl-isoxazol-3-yl)-but-1-ynyl]-4,5-dihydro-6-oxa-1,3a-diaza-benzo[e]azulene-2-carboxylic acid amide]	0.001	20000	672					
CNC(=O)c1c(C(N)=O)nc2n1CCOc1ccc(C#C[C@@](C)(O)c3noc(C)n3)cc1-2 [Example 98, 9-[(R)-3-hydroxy-3-(5-methyl-[1,2,4]ox-adiazol-3-yl)-but-1-ynyl]-4,5-dihydro-6-oxa-1,3a-diaza-benzo[e]azulene-2,3-di-carboxylic acid 2-amide 3-methylamide]	0.002	20000	237					
CNC(=O)c1c(C(N)=O)nc2n1CCOc1cc(F)c(C#C[C@@](C)(O)c3cc(C)on3)cc1-2 [Example 99, 8-fluoro-9-[(R)-3-hydroxy-3-(5-methyl-isoxazol-3-yl)-but-1-ynyl]-4,5-dihydro-6-oxa-1,3a-diaza-benzo[e]azulene-2,3-di-carboxylic acid 2-amide 3-methylamide]		20000	62.5	0.001				
Cc1cc([C@](C)(O)C#Cc2ccc3c(c2)-c2nc(C(N)=O)c(CN4CCOCC4)n2CCO3)no1 [Example 103, 9-[(R)-3-hydroxy-3-(5-methyl-isoxazol-3-yl)-but-1-ynyl]-3-morpholin-4-ylmeth-yl-4,5-dihydro-6-oxa-1,3a-diaza-ben-zo[e]azulene-2-carboxylic acid amide]	0.002	20000	104					
CC(C)(O)C#Cc1cc2c(cc1F)OCCn1c-2nc(C(N)=O)c1-c1nc(-c2cccnc2)n[nH]1 [Example 172]	0.0004	> 20000	1200					
CNC(=O)c1c(C(N)=O)nc2n1CCOc1cc(F)c(C#CC(C)(O)c3ccccn3)cc1-2 (stereo not drawn) [Example 180, 9-fluoro-10-[3-hydroxy-3-(2-pyridyl)but-1-ynyl]-N3-methyl-5,6-dihydroimi-dazo[1,2-d][1,4]benzoxazepine-2,3-dicarboxamide]	0.0012	> 20000	870					
Cn1c(C(N)=O)nc2c1C1CC(C1)c1cc(F)c(C#C[C@@](C)(O)c3ncccn3)cc1-2 [Example 283, (R)-8-fluoro-9-(3-hydroxy-3-(pyrimidin-2-yl)but-1-yn-1-yl)-3-methyl-3,4,5,6-tetrahydro-4,6-methanobenzo[3,4]cyclo-hepta[1,2-d]imidazole-2-carboxamide]	0.00016	20000	881					
Cc1c(C(N)=O)nc2n1C1CC(C1)c1cc(F)c(C#C[C@@](C)(O)c3ncccn3)cc1-2 [Example 321, 9-fluoro-10-[(3R)-3-hydroxy-3-pyrim-idin-2-yl-but-1-ynyl]-3-methyl-5,6,7,12-tet-rahydro-5,7-methanobenzo[c]imidazo[1,2-a]azepine-2-carboxamide]	0.012	> 20000	3000					
CC(C)(O)c1c(C(N)=O)nc2n1C1CC(C1)c1cc(F)c(C#CC3(O)CCCC3)cc1-2 [Example 324, 9-fluoro-10-[2-(1-hydroxycyclopentyl)ethy-nyl]-3-(1-hydroxy-1-methyl-ethyl)-5,6,7,12-tetrahydro-5,7-methanobenzo[c]imi-dazo[1,2-a]azepine-2-carboxamide]				0.0089	> 20000	1100		
Cc1cc([C@](C)(O)C#Cc2cc3c(cc2F)C2CC(C2)n2c-3nc(C(N)=O)c2C(C)(C)O)no1 [Example 326]	0.0057	5600	1200					
CN1CC[C@@](O)(C#Cc2cc3c(cc2F)C2CC(C2)n2c-3nc(C(N)=O)c2C(C)(C)O)C1=O [Example 327, 9-fluoro-3-(1-hydroxy-1-methyl-ethyl)-10-[2-[(3R)-3-hydroxy-1-methyl-2-oxo-pyrrolidin-3-yl]ethynyl]-5,6,7,12-tet-rahydro-5,7-methanobenzo[c]imidazo[1,2-a]azepine-2-carboxamide]	0.00685	> 20000	7800					
CC(C)(O)C#Cc1cc2c(cc1F)C1CC(C1)n1c-2nc(C(N)=O)c1C1(O)COC1 [Example 339, 9-fluoro-10-(3-hydroxy-3-methyl-but-1-ynyl)-3-(3-hydroxyoxetan-3-yl)-5,6,7,12-tetrahydro-5,7-methanobenzo[c]imi-dazo[1,2-a]azepine-2-carboxamide]	0.007						> 20000	2600
Cn1nccc1Cn1c(C(N)=O)nc2c1C1CC(C1)c1cc(F)c(C#CC(C)(C)O)cc1-2 [Example 391]	0.002	20000	36.8					
Cc1nc([C@](C)(O)C#Cc2ccc3c(c2)-c2nc(C(N)=O)n(C)c2C2CC3C2)no1 [Example 426]	0.0018	> 20000	406					
